# Laboratory results as given in ChEMBL document CHEMBL1681738, “Efficient synthesis of triazole moiety-containing nucleotide analogs and their inhibitory effects on a malic enzyme” (Bioorg Med Chem Lett, 2011).
# Calls of active or inactive are those of the source. No cut-off for these calls is given here.
# Biological target: NAD-dependent malic enzyme (Escherichia coli K12) (UniProt P26616)
# Experiment: Inhibition of Escherichia coli K-12 recombinant NAD-dependent malic enzyme at 0.2 mM
# NAD-dependent malic enzyme (Escherichia coli K12), sequence (P26616 whole entry, looked up): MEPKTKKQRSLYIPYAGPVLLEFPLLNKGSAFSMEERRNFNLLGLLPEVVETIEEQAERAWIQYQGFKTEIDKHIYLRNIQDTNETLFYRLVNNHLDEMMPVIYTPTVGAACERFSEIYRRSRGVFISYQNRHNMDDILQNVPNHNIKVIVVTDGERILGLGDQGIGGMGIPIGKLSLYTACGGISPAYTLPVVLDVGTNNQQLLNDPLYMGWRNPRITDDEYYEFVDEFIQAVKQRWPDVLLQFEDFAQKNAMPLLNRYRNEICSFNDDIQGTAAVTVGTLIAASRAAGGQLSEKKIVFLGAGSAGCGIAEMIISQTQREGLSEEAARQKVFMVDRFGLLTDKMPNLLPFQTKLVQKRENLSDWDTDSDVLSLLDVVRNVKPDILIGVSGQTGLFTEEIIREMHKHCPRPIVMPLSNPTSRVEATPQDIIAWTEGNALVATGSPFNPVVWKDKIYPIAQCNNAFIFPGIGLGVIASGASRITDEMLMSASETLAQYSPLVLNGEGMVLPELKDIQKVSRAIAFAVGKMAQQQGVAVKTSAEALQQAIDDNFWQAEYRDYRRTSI
row,Compound,inhibition
1,O=C(NCc1cn([C@@H]2O[C@H](COP(=O)(O)O)[C@@H](O)[C@H]2O)nn1)c1ccccc1,Active
2,Nc1ccccc1-c1cn([C@@H]2O[C@H](COP(=O)(O)O)[C@@H](O)[C@H]2O)nn1,Active
3,Cc1ccccc1-c1cn([C@@H]2O[C@H](COP(=O)(O)O)[C@@H](O)[C@H]2O)nn1,Active
4,O=P(O)(O)OC[C@H]1O[C@@H](n2cc(-c3cccc4ccccc34)nn2)[C@H](O)[C@@H]1O,Active
5,O=P(O)(O)OC[C@H]1O[C@@H](n2cc(-c3ccc(F)cc3)nn2)[C@H](O)[C@@H]1O,Active
6,COc1ccc(-c2cn([C@@H]3O[C@H](COP(=O)(O)O)[C@@H](O)[C@H]3O)nn2)cc1,Active
7,CC(=O)NCc1cn([C@@H]2O[C@H](COP(=O)(O)O)[C@@H](O)[C@H]2O)nn1,Active
8,O=P(O)(O)OC[C@H]1O[C@@H](n2cc(-c3ccccc3F)nn2)[C@H](O)[C@@H]1O,Active
9,O=P(O)(O)OC[C@H]1O[C@@H](n2cc(CCO)nn2)[C@H](O)[C@@H]1O,Active
10,O=P(O)(O)OC[C@H]1O[C@@H](n2cc(-c3ccccc3)nn2)[C@H](O)[C@@H]1O,Active
11,O=P(O)(O)OC[C@H]1O[C@@H](n2cc(-c3ccccc3C(F)(F)F)nn2)[C@H](O)[C@@H]1O,Active
